Reference: patent US11014895B2, “Heterocyclic urea compound, and drug composition and application thereof” (CHINA PHARMACEUTICAL UNIVERSITY, priority 2017, dated 2021)

Tests used:
[1] = biological target: T1, IDO1 enzyme in the Hela cell (Homo sapiens, UniProt P14902); assay: Cell activity: interferon γ-stimulated Hela cells, absorbance of supernatant at 480 nm; type: cell-based; conditions: interferon γ 100 ng/ml, 72 hours
T1 construct: endogenous in cells; host or cells: HeLa cells stimulated with interferon γ (100 ng/ml)
T1 sequence (P14902 whole entry): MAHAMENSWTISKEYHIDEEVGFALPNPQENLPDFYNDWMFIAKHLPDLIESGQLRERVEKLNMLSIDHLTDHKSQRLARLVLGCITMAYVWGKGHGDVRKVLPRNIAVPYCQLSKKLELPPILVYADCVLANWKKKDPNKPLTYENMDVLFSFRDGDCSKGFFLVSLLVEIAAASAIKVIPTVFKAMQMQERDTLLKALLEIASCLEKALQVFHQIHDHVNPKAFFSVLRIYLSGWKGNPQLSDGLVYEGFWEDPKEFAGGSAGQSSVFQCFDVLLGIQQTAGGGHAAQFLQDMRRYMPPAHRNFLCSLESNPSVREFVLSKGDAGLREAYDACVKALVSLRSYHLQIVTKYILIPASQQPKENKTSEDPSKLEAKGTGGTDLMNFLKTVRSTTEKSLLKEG
Outline: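 HeLa cells treated with compound plus interferon γ (100 ng/ml final) and cultured 72 h at 37 °C. Supernatant treated with trichloroacetic acid 30 min at 50 °C, centrifuged, then mixed with 2% dimethylaminobenzaldehyde in acetic acid; absorbance read at 480 nm.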

[2] = biological target: IDO1 enzyme (Homo sapiens, UniProt P14902); assay: Determination of biochemical activity of IDO1 enzyme (absorbance at 320 nm); conditions: room temperature, 3 hours
Sequence of IDO1 enzyme (P14902 whole entry): as above
Outline: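 Enzyme and compound were reacted in sodium hydrogen phosphate buffer (pH 7-8) for 3 hours at room temperature. Absorbance at 320 nm gave inhibition rate, and IC50 was calculated from it.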

| IC50 [1] [µM] | IC50 [2] [µM] | SMILES |
| --- | --- | --- |
| > 1 | > 1 | O=C(Nc1ccncn1)Nc1nonc1/C(=N/O)Nc1ccc(F)c(Br)c1 [Embodiment 45, (Z)-1-(4-(N-(3-bromo-4-fluorophenyl)-N′-hydroxyaminoiminomethyl)-1,2,5-oxadiazole-3-substituted)-3-(pyrimidine-4-substituted)urea] |
| 0.1 to 1 | 0.1 to 1 | O/N=C(\Nc1ccc(F)c(Br)c1)c1cocc1NC(=S)NC1CCCCC1 [Embodiment 138, (Z)-1-(4-(N-(3-bromo-4-fluorophenyl)-N′-hydroxyaminoiminomethyl)-furan-3-substituted)-3-cyclohexylthiourea] |
| 0.1 to 1 | 0.1 to 1 | O/N=C(\Nc1ccc(F)c(Br)c1)c1nonc1NC(=S)NC1CCCCC1 [Embodiment 121, (Z)-1-(4-(N-(3-bromo-4-fluorophenyl)-N′-hydroxyaminoiminomethyl)-1,2,5-oxadiazole-3-substituted-)-3-(cyclohexyl)thiourea] |
| 0.1 to 1 | 0.1 to 1 | COc1ccc(NC(=S)Nc2conc2/C(=N/O)Nc2ccc(F)c(Cl)c2)cc1 [Embodiment 130, (Z)-1-(4-(N-(3-chloro-4-fluorophenyl)-N′-hydroxyaminoiminomethyl)-isoxazole-3-substituted)-4-(4-methoxyphenyl)thiourea] |
| 0.1 to 1 | 0.1 to 1 | O=C(Nc1cccnc1)Nc1nocc1/C(=N/O)Nc1ccc(F)c(Br)c1 [Embodiment 96, (Z)-1-(4-(N-(3-bromo-4-fluorophenyl)-N′-hydroxyaminoiminomethyl)-isoxazole-3-substituted)-3-(3-aminopyridine)urea] |
| 0.1 to 1 | 0.1 to 1 | CC(C)NC(=O)Nc1cocc1/C(=N/O)Nc1ccc(F)c(Br)c1 [Embodiment 71, (Z)-1-(4-(N-(3-bromo-4-fluorophenyl)-N′-hydroxyaminoiminomethyl)-furan-3-substituted)-3-isopropylurea] |
| > 1 | > 1 | O=C(Nc1ccc(F)cc1)Nc1nonc1/C(=N/O)Nc1ccc(F)c(Br)c1 [Embodiment 5, (Z)-1-(4-(N-(4-bromo-3-fluorophenyl)-N′-hydroxyaminoiminomethyl)-1,2,5-oxadiazole-3-substituted)-3-(4-fluorophenyl)urea] |
| < 0.001 | < 0.001 | Nc1ccc(NC(=S)Nc2nonc2/C(=N/O)Nc2ccc(F)c(Br)c2)cc1 [Embodiment 118, (Z)-1-(4-(N-(3-bromo-4-fluorophenyl)-N′-hydroxyaminoiminomethyl)-1,2,5-oxadiazole-3-substituted)-3-(4-aminophenyl)thiourea] |
| < 0.001 | < 0.001 | O=C(Nc1conc1/C(=N/O)Nc1ccc(F)c(Cl)c1)NC1CCCCC1 [Embodiment 114] |
| < 0.001 | < 0.001 | OCCNC(=S)Nc1nonc1/C(=N/O)Nc1ccc(F)c(Br)c1 [Embodiment 128, (Z)-1-(4-(N-(3-bromo-4-fluorophenyl)-N′-hydroxyaminoiminomethyl)-1,2,5-oxadiazole-3-substituted)-3-(2-hydroxyethyl)thiourea] |
| 0.1 to 1 | 0.1 to 1 | O=C(Nc1nonc1/C(=N/O)Nc1ccc(F)c(Br)c1)NC1CCCCC1 [Embodiment 7, (Z)-1-(4-(N-(3-bromo-4-fluorophenyl)-N′-hydroxyaminoiminomethyl)-1,2,5-oxadiazole-3-substituted)-3-cyclohexylurea] |
| 0.1 to 1 | 0.1 to 1 | COc1ccc(NC(=O)Nc2conc2/C(=N/O)Nc2ccc(F)c(Cl)c2)cc1 [Embodiment 112, (Z)-1-(4-(N-(3-chloro-4-fluorophenyl)-N′-hydroxyaminoiminomethyl)-isoxazole-3-substituted)-4-(4-methoxyphenyl)urea] |
| > 1 | > 1 | COc1cccc(NC(=O)Nc2nocc2/C(=N/O)Nc2ccc(F)c(Br)c2)c1 [Embodiment 80, (Z)-1-(4-(N-(3-bromo-4-fluorophenyl)-N′-hydroxyaminoiminomethyl)-isoxazole-3-substituted)-3-(3-methoxyphenyl)urea] |
